61 molecules from patent US9266834B2, “1, 4-disubstituted 3-cyano-pyridone derivatives and their use as positive allosteric modulators of MGLUR2-receptors” (JANSSEN PHARMACEUTICALS, INC., priority 2006, dated 2016) can be followed below.

SMILES strings stand for the structures.

One experiment deals with T1, human mGluR2 receptor (Homo sapiens, UniProt Q14416).
T1 construct: expressed in transfected cells; host or cells: CHO cells (membrane preparation)
T1 sequence (Q14416 19-872): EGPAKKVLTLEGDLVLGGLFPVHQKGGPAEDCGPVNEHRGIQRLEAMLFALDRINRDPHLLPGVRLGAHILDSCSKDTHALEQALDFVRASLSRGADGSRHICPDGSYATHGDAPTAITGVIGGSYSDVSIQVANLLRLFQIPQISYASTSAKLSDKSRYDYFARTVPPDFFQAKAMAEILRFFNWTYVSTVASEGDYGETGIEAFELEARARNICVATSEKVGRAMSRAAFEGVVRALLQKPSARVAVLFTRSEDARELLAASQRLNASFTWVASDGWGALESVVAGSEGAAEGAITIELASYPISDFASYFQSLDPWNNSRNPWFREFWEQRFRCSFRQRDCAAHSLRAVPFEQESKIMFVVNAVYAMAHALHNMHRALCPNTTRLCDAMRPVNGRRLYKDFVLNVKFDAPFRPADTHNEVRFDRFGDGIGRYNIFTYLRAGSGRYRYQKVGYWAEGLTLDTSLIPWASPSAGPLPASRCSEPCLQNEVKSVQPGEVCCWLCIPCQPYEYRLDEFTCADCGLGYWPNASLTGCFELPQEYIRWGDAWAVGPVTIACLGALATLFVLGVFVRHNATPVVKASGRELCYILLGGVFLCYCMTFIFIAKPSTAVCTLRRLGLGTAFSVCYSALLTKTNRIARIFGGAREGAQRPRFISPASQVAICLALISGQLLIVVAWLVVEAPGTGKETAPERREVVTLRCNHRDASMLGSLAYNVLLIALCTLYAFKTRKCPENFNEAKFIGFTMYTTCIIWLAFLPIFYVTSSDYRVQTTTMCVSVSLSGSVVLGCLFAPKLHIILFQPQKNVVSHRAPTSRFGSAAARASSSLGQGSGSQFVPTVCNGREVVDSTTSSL
The experiment can be described thus: [35S]GTPγS binding assay (GTPγS-PAM): positive allosteric modulation in presence of glutamate at EC25, membranes from transfected CHO cells. The class given is biochemical. Conditions: in presence of mGluR2 agonist glutamate at predetermined EC25 concentration, averages of duplicate values of 11-concentration response curves. The source says: The compounds provided in the present invention are positive allosteric modulators of mGluR2. These compounds appear to potentiate glutamate responses by binding to an allosteric site other than the glutamate binding site. The response of mGluR2 to a concentration of glutamate is increased when compounds of Formula (I) are present. Compounds of Formula (I) are expected to have their effect substantially at mGluR2 by virtue of their ability to enhance the function of the receptor. The behaviour of positive allosteric modulators tested at mGluR2 using the [^35S]GTPγS binding assay method described below and which is suitable for the identification of such compounds, and more particularly the compounds according to Formula (I), are shown in Table 4.
[^35S]GTPγS Binding Assay
The [^35S]GTPγS binding is a functional membrane-based assay used to study G-protein coupled receptor (GPCR) function whereby incorporation of a non-hydrolysable form of GTP, [^35S]GTPγS (guanosine 5′-triphosphate, labelled with […] ^35S), is measured. The G-protein o subunit catalyzes the exchange of guanosine 5′-diphosphate (GDP) by guanosine triphosphate (GTP) and on activation of the GPCR by an agonist, [^35S]GTPγS, becomes incorporated and cannot be cleaved to continue the exchange cycle (Harper (1998) Current Protocols in Pharmacology 2.6.1-10, John Wiley & Sons, Inc.). […] Here we describe the use of the [^35S]GTPγS binding assay using membranes from cells transfected with the human mGluR2 receptor and adapted from Schaffhauser et al ((2003) Molecular Pharmacology 4:798-810) for the detection of the positive allosteric modulation (PAM) properties of the compounds of this invention.
CHO-cells were cultured to pre-confluence and stimulated with 5 mM butyrate for 24 hours, prior to washing in PBS, and then collection by scraping in homogenisation buffer (50 mM Tris-HCl buffer, pH 7.4, 4° C.). Cell lysates were homogenized briefly (15 s) using an ultra-turrax homogenizer. The homogenate was centrifuged at 23 500×g for 10 minutes and the supernatant discarded. The pellet was resuspended in 5 mM Tris-HCl, pH 7.4 and centrifuged again (30 000×g, 20 min, 4° C.). The final pellet was resuspended in 50 mM HEPES, pH 7.4 and stored at −80° C. in appropriate aliquots before use. Protein concentration was determined by the Bradford method (Bio-Rad, USA) with bovine serum albumin as standard.
Measurement of mGluR2 positive allosteric modulators in membranes containing human mGluR2 was performed using frozen membranes that were thawed and briefly homogenised prior to pre-incubation in 96-well microplates (15 μg/assay well, 30 minutes, 30° C.) in assay buffer (50 mM HEPES pH 7.4, 100 mM NaCl, 3 mM MgCl2, 50 μM GDP, 10 μg/ml saponin,) with increasing concentrations of positive allosteric modulator (from 0.3 nM to 50 μM) and either a minimal pre-determined concentration of glutamate (PAM assay), or no added glutamate. For the PAM assay, membranes were pre-incubated with glutamate at EC25 concentration, i.e. a concentration that gives 25% of the maximal response glutamate, and is in accordance to published data (Pin et al. (1999) Eur. J. Pharmacol. 375:277-294). After addition of [^35S]GTPγS (0.1 nM, f.c.) to achieve a total reaction volume of 200 μl, microplates were shaken briefly and further incubated to allow [^35S]GTPγS incorporation on activation (30 minutes, 30° C.). The reaction was stopped by rapid vacuum filtration over glass-fibre filter plates (Unifilter 96-well GF/B filter plates, Perkin-Elmer, Downers Grove, USA) microplate using a 96-well plate cell harvester (Filtermate, Perkin-Elmer, USA), and then by washing three times with 300 μl of ice-cold wash buffer (Na2PO4.2H2O 10 mM, NaH2PO4.H2O 10 mM, pH=7.4). Filters were then air-dried, and 40 μl of liquid scintillation cocktail (Microscint-O) was added to each well, and membrane-bound [^35S]GTPγS was measured in a 96-well scintillation plate reader (Top-Count, Perkin-Elmer, USA). […]
For the molecule `CCCCn1ccc(-c2ccc(Oc3ccnc(C)c3)cc2)c(C#N)c1=O` [1-064, 3-cyano-1-butyl-4-[4-(2-methyl-pyridin-4-yloxy)-phenyl]-pyridine-2(1H)-one], the “GTPgS - hR2 PAM pEC50” value was determined as 6.4.

The experiment is the same for the next values; noted with them: in presence of mGluR2 agonist glutamate at predetermined EC25 concentration, averages of duplicate values of 11-concentration response curves, read-out: GTPgS - hR2 PAM pEC50 (converted).
Regarding `N#Cc1c(N[C@@H]2C[C@H]2c2ccccc2)ccn(CC2CC2)c1=O` (racemic) [1-294], the EC50 was 3160 nM. The same measure, in the same setting: next, `CC(C)CCn1ccc(N[C@@H]2C[C@H]2c2ccccc2)c(C#N)c1=O` (racemic) [1-304]: 2000 nM; `N#Cc1c(-c2ccc(OCC3CC3)cc2F)ccn(CC2CC2)c1=O` [1-003]: 631 nM. In the case of `N#Cc1c(-c2ccc(Oc3ccnc(N4CCCC4)c3)cc2)ccn(CC2CC2)c1=O` [1-005], the EC50 was 398 nM. The same measure, in the same setting: then `N#Cc1c(-c2ccc(Oc3ccnc(N4CCCCC4)c3)cc2)ccn(CC2CC2)c1=O` [1-006], with 316 nM. In the case of `CN(C)c1ccc(-c2ccn(CC3CCCCC3)c(=O)c2C#N)cc1` [1-010], the EC50 is 100 nM. Turning to `COc1ccc(-c2ccn(CC3CCCCC3)c(=O)c2C#N)cc1` [1-012], the EC50 was 398 nM. On the same count and under the same terms, next, `Cc1ccccc1Cn1ccc(-c2cccs2)c(C#N)c1=O` [1-015]: 3980 nM; `COc1ccc(-c2ccn(Cc3ccccc3C)c(=O)c2C#N)cc1` [1-016]: 2000 nM; `COc1ccc(-c2ccn(Cc3cccc(C)c3)c(=O)c2C#N)cc1` [1-017]: 1000 nM. As to `COc1ccc(-c2ccn(Cc3ccc(C)cc3)c(=O)c2C#N)cc1` [1-021], the EC50 was 631 nM. The same measure, in the same setting: next, `COc1ccc(-c2ccn(Cc3ccc(F)cc3)c(=O)c2C#N)cc1` [1-022]: 316 nM; `CC(C)Oc1ccc(-c2ccn(Cc3ccc(F)cc3)c(=O)c2C#N)cc1Cl` [1-025]: 100 nM; `COc1ccc(-c2ccn(Cc3cccc(Cl)c3)c(=O)c2C#N)cc1` [1-026]: 501 nM. On to `COc1ccc(-c2ccn(Cc3ccc(Cl)cc3)c(=O)c2C#N)cc1` [1-027], for which the EC50 is 501 nM. On to `C[C@@H]1COC[C@H](C)N1Cc1ccc(-c2ccn(Cc3ccc(OC(F)(F)F)cc3)c(=O)c2C#N)cc1` [1-034], for which the EC50 was 1260 nM. For the molecule `CC1COCC(C)N1Cc1ccc(-c2ccn(Cc3ccc(OC(F)(F)F)cc3)c(=O)c2C#N)cc1` (stereo not shown) [1-036], the EC50 was 631 nM. The same measure, in the same setting: then `N#Cc1c(-c2ccccc2)ccn(CCOc2ccccc2)c1=O` [1-047], with 2510 nM; and `CC(C)Oc1ccc(-c2ccn(CCOc3ccccc3)c(=O)c2C#N)cc1Cl` [1-049], with 126 nM. On the same count and under the same terms, next, `N#Cc1c(-c2ccccc2)ccn(CCCc2ccccc2)c1=O` [1-053]: 5010 nM; `CCCCn1ccc(-c2ccc(Cn3ccnc3C)cc2)c(C#N)c1=O` [1-060]: 1000 nM; `CCCCn1ccc(-c2cccc(Oc3ccccn3)c2)c(C#N)c1=O` [1-061]: 6310 nM. Still for that read-out and setting: then `CCCCn1ccc(-c2cccc(Oc3ccncc3)c2)c(C#N)c1=O` [1-062], with 6310 nM; and `CCCCn1ccc(-c2ccc(Oc3ccncc3)cc2F)c(C#N)c1=O` [1-066], with 501 nM.

Consider `CCCCn1ccc(-c2ccc(Oc3ncccc3C(F)(F)F)cc2)c(C#N)c1=O` [1-067], for which the EC50 was 158 nM. As to `CCCCn1ccc(-c2ccc(Oc3cccc(C(F)(F)F)n3)cc2)c(C#N)c1=O` [1-068], the EC50 is 251 nM. Regarding `CCCCn1ccc(-c2cccc(Oc3ccncc3C(F)(F)F)c2)c(C#N)c1=O` [1-069], the EC50 was 2510 nM. On the same count and under the same terms, then `CCCCn1ccc(-c2ccc(Oc3ncccc3C#N)cc2)c(C#N)c1=O` [1-071], with 631 nM. On the same count and under the same terms, next, `CCCCn1ccc(-c2ccc(Oc3ccc(C#N)cn3)cc2)c(C#N)c1=O` [1-072]: 1580 nM; `CCCCn1ccc(-c2ccc(Oc3ccnc(N4CCOCC4)c3)cc2)c(C#N)c1=O` [1-073]: 398 nM. Same read-out and setting: then `CCCCn1ccc(-c2ccc(Oc3ncccn3)cc2)c(C#N)c1=O` [1-074], with 5010 nM; and `CCCCn1ccc(-c2ccc(Oc3ccncn3)cc2)c(C#N)c1=O` [1-075], with 5010 nM. Turning to `CCCCn1ccc(-c2ccc(Oc3cnccn3)cc2)c(C#N)c1=O` [1-076], the EC50 is 3980 nM. Same read-out and setting: then `CC(C)CCn1ccc(-c2ccco2)c(C#N)c1=O` [1-081], with 6310 nM; and `CC(C)CCn1ccc(-c2ccc(Cl)s2)c(C#N)c1=O` [1-083], with 200 nM; and `CC(C)CCn1ccc(-c2ccc(F)cc2)c(C#N)c1=O` [1-089], with 3160 nM. On the same count and under the same terms, then `CC(C)CCn1ccc(-c2ccc(Br)c(Br)c2)c(C#N)c1=O` [1-092], with 63.1 nM. Same read-out and setting: then `CC(C)CCn1ccc(-c2ccc(OCCO)cc2)c(C#N)c1=O` [1-099], with 1000 nM. As for `CCOc1ccc(-c2ccn(CCC(C)C)c(=O)c2C#N)cc1` [1-104], the EC50 was 2000 nM. `COCCCc1ccc(-c2ccn(CCC(C)C)c(=O)c2C#N)cc1` [1-106]: the EC50 was 631 nM. Take `COc1cc(-c2ccn(CCC(C)C)c(=O)c2C#N)ccc1O` [1-108]: the EC50 is 6310 nM.

Turning to `COc1cc(-c2ccn(CCC(C)C)c(=O)c2C#N)ccc1OCCO` [1-109], the EC50 was 5010 nM. With `COc1cc(F)c(-c2ccn(CCC(C)C)c(=O)c2C#N)c(F)c1` [1-116], the EC50 was 631 nM. With `CC(=O)COc1ccc(-c2ccn(CCC(C)C)c(=O)c2C#N)cc1` [1-118], the EC50 is 2000 nM. On to `CC(C)CCn1ccc(-c2ccc(OC(F)F)cc2)c(C#N)c1=O` [1-119], for which the EC50 is 631 nM.

In the case of `CC(C)CCn1ccc(-c2ccc(OCCF)c(Cl)c2)c(C#N)c1=O` [1-121], the EC50 was 501 nM. On the same count and under the same terms, next, `CC(C)CCn1ccc(-c2ccc(OC3CCCC3)c(Cl)c2)c(C#N)c1=O` [1-124]: 50.1 nM; `COc1cc(-c2ccn(CCC(C)C)c(=O)c2C#N)ccc1OC(C)=O` [1-125]: 5010 nM.

For the molecule `CC(=O)CCOc1ccc(-c2ccn(CCC(C)C)c(=O)c2C#N)cc1` [1-126], the EC50 is 631 nM. Still for that read-out and setting: next, `CC(C)CCn1ccc(-c2ccc(COCC#N)cc2)c(C#N)c1=O` [1-132]: 2000 nM; `CC(C)CCn1ccc(-c2ccc(OCC3CC3)cc2)c(C#N)c1=O` [1-133]: 200 nM. For `CC(C)CCn1ccc(-c2ccc(OC3CCCC3)cc2)c(C#N)c1=O` [1-135], the EC50 was 1000 nM. In the case of `CC(C)CCn1ccc(-c2ccc(OCCC3(C)OCCO3)cc2)c(C#N)c1=O` [1-136], the EC50 was 631 nM. On to `CC(C)CCn1ccc(-c2ccc(OCCOC3CCCCO3)cc2)c(C#N)c1=O` (stereo not shown) [1-137], for which the EC50 is 1000 nM. Consider `COc1cc(-c2ccn(CCC(C)C)c(=O)c2C#N)ccc1OCCOC1CCCCO1` (stereo not shown) [1-138], for which the EC50 was 794 nM.

Take `CC(C)CCn1ccc(-c2ccc(OCCN3CCOCC3)cc2)c(C#N)c1=O` [1-139]: the EC50 is 3980 nM. On to `CC(C)CCn1ccc(-c2ccc(Oc3ccccc3)cc2)c(C#N)c1=O` [1-140], for which the EC50 was 39.8 nM.

`CC(C)CCn1ccc(-c2ccc(OCc3ccccc3)cc2)c(C#N)c1=O` [1-141]: the EC50 was 63.1 nM. As for `COc1cc(-c2ccn(CCC(C)C)c(=O)c2C#N)ccc1OCc1ccccc1` [1-142], the EC50 is 316 nM. With `CC(C)CCn1ccc(-c2ccc(Oc3ccccn3)cc2)c(C#N)c1=O` [1-154], the EC50 was 501 nM.
